Measured values: patent publication EP4692073A1, “CYCLIC AMINE DERIVATIVE, AND COMPOSITION AND USE THEREOF” (Shanghai Jingxin Biomedical Co., Ltd., priority 2023, dated 2024)

Columns and labels:
[1] = tested on: TA100; experiment: Salmonella typhimurium reverse mutation test, TA100; format: cell-based; parameters: key: + indicates a positive mutagenic result; - indicates a negative mutagenic result
Protocol: (§1) The revived strains or a single colony from the master plate were inoculated into the broth, and cultured in a thermostat gas bath vibrator at 100 to 120 rpm and 37±1°C for 10 to 16 hours, marked and stored for later use. The bottom agar medium (containing an appropriate amount of agar, Vogel-Bonner buffer, 20% glucose solution and 20% magnesium sulfate solution) was poured into a six-well plate, approximately 20mL-25mL into each well, and allowed to cool and solidify naturally, marked each well and stored for later use.
(§2) Three wells were set up in each group for parallel experiments. The top agar medium was sterilized under high pressure and kept warm at about […]. In each test tube, 0.1mL of negative control (DMSO) or positive control or test sample, 0.1mL of bacterial solution suspension, 0.5mL of phosphate buffer (0.2M PBS) (-S9) or 0.5mL of S9 mixed solution (+S9) and 2.5mL top culture medium were added, after vortex mixing, and then quickly and evenly spread on the culture dish which was already spreaded with the bottom agar medium. After natural cooling and solidification, the culture dish was inverted and placed in a 37°C incubator for 48 to 72 hours. After culturing for 48 to 72 hours, the culture dish was taked out, and the number of revertant colonies in each well was counted, the growth background was observed under a microscope to determine whether there was antibacterial or bactericidal activity, and the experimental results were recorded.

[2] = tested on: TA98; experiment: Salmonella typhimurium reverse mutation test, TA98; format: cell-based; parameters: key: + indicates a positive mutagenic result; - indicates a negative mutagenic result
Protocol: as §1, §2

[3] = tested on: TA1537; experiment: Salmonella typhimurium reverse mutation test, TA1537; format: cell-based; parameters: key: + indicates a positive mutagenic result; - indicates a negative mutagenic result
Protocol: as §1, §2

[4] = tested on: TA1535; experiment: Salmonella typhimurium reverse mutation test, TA1535; format: cell-based; parameters: key: + indicates a positive mutagenic result; - indicates a negative mutagenic result
Protocol: as §1, §2

[5] = tested on: Lp(a); experiment: In vivo Lp(a) inhibition in cynomolgus monkeys; details: 3 mg/kg oral gavage once daily for 5 days, serum Lp(a) 8 hours after administration on Day 5
Protocol: • 1. Experimental purpose: The purpose of this test is to test the inhibitory effect of the compounds of the present invention on Lp(a) in cynomolgus monkeys • 2. Experimental instruments and reagents: Fully automatic biochemical analyzer (Hitachi 7600 model), • 3. Experimental methods: The cynomolgus monkeys were housed with a standard light cycle (12 hours light/12 hours dark), at a room temperature of 18-26°C and a relative humidity of 40-70%, with drinking water provided continuously for 24 hours, and feed was provided to the animals twice daily, in the morning (about 10:30) and in the afternoon (about 15:00). Five days prior to the study, the cynomolgus monkeys were randomly assigned to groups (n=3/group) based on their body weight and baseline serum Lp(a) concentration for the study. The administration volume was calculated according to the body weight of the animals on the first day of administration, and the administration volume was 5 mL/kg, administered once daily by oral gavage for 5 consecutive days, and the dosage was 3 mg/kg, and the solvent was 1% HEC and 0.25% Tween 80.
The adaptation period (after fasting overnight), before administration on Day 1, and 8 hours after administration on Day 5. […] The serum Lp(a) level was detected using a fully automatic biochemical analyzer. […]

[6] = tested on: TA102; experiment: Salmonella typhimurium reverse mutation test, TA102; format: cell-based; parameters: key: + indicates a positive mutagenic result; - indicates a negative mutagenic result
Protocol: as §1, §2

[7] = TA100, no S9 mixture, 62µg/ dish
[8] = TA100, no S9 mixture, 185µg/ dish
[9] = TA100, no S9 mixture, 556µg/ dish
[10] = TA100, no S9 mixture, 1667µg/ dish
[11] = TA100, no S9 mixture, 5000µg/ dish
[12] = TA100, with S9 mixture, 62µg/ dish
[13] = TA100, with S9 mixture, 185µg/ dish
[14] = TA100, with S9 mixture, 556µg/ dish
[15] = TA100, with S9 mixture, 1667µg/ dish
[16] = TA100, with S9 mixture, 5000µg/ dish
[17] = TA98, no S9 mixture, 62µg/ dish
[18] = TA98, no S9 mixture, 185µg/ dish
[19] = TA98, no S9 mixture, 556µg/ dish
[20] = TA98, no S9 mixture, 1667µg/ dish
[21] = TA98, no S9 mixture, 5000µg/ dish
[22] = TA98, with S9 mixture, 62µg/ dish
[23] = TA98, with S9 mixture, 185µg/ dish
[24] = TA98, with S9 mixture, 556µg/ dish
[25] = TA98, with S9 mixture, 1667µg/ dish
[26] = TA98, with S9 mixture, 5000µg/ dish
[27] = TA1537, no S9 mixture, 62µg/ dish
[28] = TA1537, no S9 mixture, 185µg/ dish
[29] = TA1537, no S9 mixture, 556µg/ dish
[30] = TA1537, no S9 mixture, 1667µg/ dish
[31] = TA1537, no S9 mixture, 5000µg/ dish
[32] = TA1537, with S9 mixture, 62µg/ dish
[33] = TA1537, with S9 mixture, 185µg/ dish
[34] = TA1537, with S9 mixture, 556µg/ dish
[35] = TA1537, with S9 mixture, 1667µg/ dish
[36] = TA1537, with S9 mixture, 5000µg/ dish
[37] = TA1535, no S9 mixture, 62µg/ dish
[38] = TA1535, no S9 mixture, 185µg/ dish
[39] = TA1535, no S9 mixture, 556µg/ dish
[40] = TA1535, no S9 mixture, 1667µg/ dish
[41] = TA1535, no S9 mixture, 5000µg/ dish
[42] = TA1535, with S9 mixture, 62µg/ dish
[43] = TA1535, with S9 mixture, 185µg/ dish
[44] = TA1535, with S9 mixture, 556µg/ dish
[45] = TA1535, with S9 mixture, 1667µg/ dish
[46] = TA1535, with S9 mixture, 5000µg/ dish
[47] = TA102, no S9 mixture, 62µg/ dish
[48] = TA102, no S9 mixture, 185µg/ dish
[49] = TA102, no S9 mixture, 556µg/ dish
[50] = TA102, no S9 mixture, 1667µg/ dish
[51] = TA102, no S9 mixture, 5000µg/ dish
[52] = TA102, with S9 mixture, 62µg/ dish
[53] = TA102, with S9 mixture, 185µg/ dish
[54] = TA102, with S9 mixture, 556µg/ dish
[55] = TA102, with S9 mixture, 1667µg/ dish
[56] = TA102, with S9 mixture, 5000µg/ dish

In the case of O=C(O)[C@@H](Cc1cccc(CN(Cc2cccc(C[C@H](C(=O)O)[C@H]3CCNC3)c2)Cc2cccc(C[C@H](C(=O)O)[C@H]3CCNC3)c2)c1)[C@H]1CCNC1 [Comparative Example 1], the mutagenicity [1, 7] is reported as “-”, the mutagenicity [1, 8] is reported as “-” and the mutagenicity [1, 9] is reported as “-”. The mutagenicity [1, 10] was “-”, the mutagenicity [1, 11] was “-” and the mutagenicity [1, 12] was “-”. The mutagenicity [1, 13] was “-”, the mutagenicity [1, 14] was “-” and the mutagenicity [1, 15] was “-”. The mutagenicity [1, 16] was “-”, the mutagenicity [2, 17] was “-” and the mutagenicity [2, 18] was “+”. For the same compound, the mutagenicity [2, 19] was “+”, the mutagenicity [2, 20] was “+” and the mutagenicity [2, 21] was “+”. For the same compound, the mutagenicity [2, 22] was “-”, the mutagenicity [2, 23] was “-” and the mutagenicity [2, 24] was “+”. For the same compound, the mutagenicity [2, 25] was “+”, the mutagenicity [2, 26] was “+” and the mutagenicity [3, 27] was “-”. For the same compound, the mutagenicity [3, 28] was “-”, the mutagenicity [3, 29] was “-” and the mutagenicity [3, 30] was “-”. The mutagenicity [3, 31] was “-”, the mutagenicity [3, 32] was “-” and the mutagenicity [3, 33] was “-”. For the same compound, the mutagenicity [3, 34] was “-”, the mutagenicity [3, 35] was “-” and the mutagenicity [3, 36] was “-”. The mutagenicity [4, 37] was “-”, the mutagenicity [4, 38] was “-” and the mutagenicity [4, 39] was “-”. The mutagenicity [4, 40] was “-”, the mutagenicity [4, 41] was “-” and the mutagenicity [4, 42] was “-”. For the same compound, the mutagenicity [4, 43] was “-”, the mutagenicity [4, 44] was “-” and the mutagenicity [4, 45] was “-”. For the same compound, the mutagenicity [4, 46] was “-”, the “Lp(a) inhibition rate” value [5] was 32.87±17.30% and the mutagenicity [6, 47] was “-”. The mutagenicity [6, 48] was “-”, the mutagenicity [6, 49] was “-” and the mutagenicity [6, 50] was “-”. For the same compound, the mutagenicity [6, 51] was “-”, the mutagenicity [6, 52] was “-” and the mutagenicity [6, 53] was “-”. For the same compound, the mutagenicity [6, 54] was “-”, the mutagenicity [6, 55] was “-” and the mutagenicity [6, 56] was “-”.

For O=C(O)[C@@H](Cc1cccc(CN(Cc2cccc(C[C@H](C(=O)O)[C@H]3CCNC3)c2)C(=O)c2cccc(C[C@H](C(=O)O)[C@H]3CCNC3)c2)c1)[C@H]1CCNC1 [Example 5], the mutagenicity [1, 7] was “-”, the mutagenicity [1, 8] was “-” and the mutagenicity [1, 9] was “-”. The mutagenicity [1, 10] was “-”, the mutagenicity [1, 11] was “-” and the mutagenicity [1, 12] was “-”. The mutagenicity [1, 13] was “-”, the mutagenicity [1, 14] was “-” and the mutagenicity [1, 15] was “-”. For the same compound, the mutagenicity [1, 16] was “-”, the mutagenicity [2, 17] was “-” and the mutagenicity [2, 18] was “-”. For the same compound, the mutagenicity [2, 19] was “-”, the mutagenicity [2, 20] was “-” and the mutagenicity [2, 21] was “-”. For the same compound, the mutagenicity [2, 22] was “-”, the mutagenicity [2, 23] was “-” and the mutagenicity [2, 24] was “-”. The mutagenicity [2, 25] was “-”, the mutagenicity [2, 26] was “-” and the mutagenicity [3, 27] was “-”. For the same compound, the mutagenicity [3, 28] was “-”, the mutagenicity [3, 29] was “-” and the mutagenicity [3, 30] was “-”. For the same compound, the mutagenicity [3, 31] was “-”, the mutagenicity [3, 32] was “-” and the mutagenicity [3, 33] was “-”. The mutagenicity [3, 34] was “-”, the mutagenicity [3, 35] was “-” and the mutagenicity [3, 36] was “-”. For the same compound, the mutagenicity [4, 37] was “-”, the mutagenicity [4, 38] was “-” and the mutagenicity [4, 39] was “-”. For the same compound, the mutagenicity [4, 40] was “-”, the mutagenicity [4, 41] was “-” and the mutagenicity [4, 42] was “-”. For the same compound, the mutagenicity [4, 43] was “-”, the mutagenicity [4, 44] was “-” and the mutagenicity [4, 45] was “-”. For the same compound, the mutagenicity [4, 46] was “-”, the “Lp(a) inhibition rate” value [5] was 50.23±20.41% and the mutagenicity [6, 47] was “-”. For the same compound, the mutagenicity [6, 48] was “-”, the mutagenicity [6, 49] was “-” and the mutagenicity [6, 50] was “-”. For the same compound, the mutagenicity [6, 51] was “-”, the mutagenicity [6, 52] was “-” and the mutagenicity [6, 53] was “-”. The mutagenicity [6, 54] was “-”, the mutagenicity [6, 55] was “-” and the mutagenicity [6, 56] was “-”.
